Results as given in patent US8598348B2, “Purification of 1-[2-(2,4-dimethylphenylsulfanyl)phenyl]piperazine” (H. Lundbeck A/S, priority 2009, dated 2013).
Where a name gives a salt, the structure may show the parent alone.

Columns and labels:
[1] = judged from DSC and solubility data; as shown in WO 2007/144005; cited from earlier work
[2] = Water absorption when exposed to high relative humidity; assay type: physicochemical
Solubility in water = assay type: physicochemical

Cc1ccc(Sc2ccccc2N2CCNCC2)c(C)c1 [beta form of the hydrobromide, 1-[2-(2,4-dimethylphenylsulfanyl)phenyl]piperazine-HBr]
stability among the α-, β- and γ-forms of the HBr salt [1]: most stable form | absorption of water when exposed to high relative humidity [2]: about 0.6% | solubility (Solubility in water): 1200 µg/mL
